Holding throughout (type): biochemical
In one assay the target is PIM-1 (Homo sapiens, UniProt P11309). As to the kind of experiment: Enzyme PIM-1 Assay ([33P]ATP incorporation into PIM2tide, filter plate). To be noted: averaged IC50; 35 μM ATP, 7.5 μM PIM2tide, 0.25 nM PIM-1, 60 min at 22° C. The method, then: (§1) The assay for the determination of PIM-1 activity is based on the incorporation of [^33P]PO4 from [γ-^33P]ATP into PIM2tide substrate and capture of the radiolabeled peptide onto a Whatman P81 (phosphocellulose) filter plate. The amount of radiolabeled product is then measured by liquid scintillation counting. The final buffer conditions were as follows: 20 mM K^+MOPS, pH 7.4, 10 mM MgCl2, 0.005% Tween-20, 1 mM DTT. Assay mixtures contained 35 μM [γ-^33P]ATP (20 μCi/mL), 7.5 μM PIM2tide and 0.25 nM PIM-1 in a total volume of 50 μL. Incubations were carried out for 60 min at 22° C. and quenched with 75 μL of 200 mM H3PO4, filtered through a Whatman P81 plate and washed (1×200 μL and 5×100 μL) with 200 mM H3PO4. Fifty μL of liquid scintillation cocktail were then added per well, and the plate was counted for 30 s/well using a TopCount NXT.
Chain of PIM-1 (P11309 whole entry, species assumed): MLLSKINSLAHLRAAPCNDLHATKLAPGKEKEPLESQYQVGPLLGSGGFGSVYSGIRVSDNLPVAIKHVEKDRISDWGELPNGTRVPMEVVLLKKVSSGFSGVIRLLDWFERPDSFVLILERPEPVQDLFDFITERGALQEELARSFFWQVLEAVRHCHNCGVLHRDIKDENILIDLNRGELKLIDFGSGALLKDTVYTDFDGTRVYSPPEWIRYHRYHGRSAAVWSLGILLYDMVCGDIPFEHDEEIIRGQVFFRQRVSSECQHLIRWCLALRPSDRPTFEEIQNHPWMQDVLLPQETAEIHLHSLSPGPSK
(§2) Compounds were prepared at 50× the final concentration in DMSO by conducting 3-fold serial dilutions from a 500-μM intermediate dilution to give a 10-point dosing curve having a high dose of 10 μM. One-μL aliquots of these were then transferred to the assay mixtures above to give a final concentration of DMSO of 2%. A standard or reference compound was typically included on each assay plate to validate that plate. For each plate, percent of control (POC) values were calculated for each well. IC50 values were estimated from the POC values using a standard 4-parameter logistic model. The IC50 is defined as the concentration of inhibitor at which the POC equals 50 for the fitted curve.

The target of another assay is recombinant rat PIM-3 (Rattus norvegicus, UniProt O70444). Put plainly: PIM-3 Assay (as Example A). To be noted: averaged IC50; 30 μM ATP, 3.75 μM PIM2tide, 0.5 nM PIM-3. On the procedure:
as §1, §2
Assay was performed as described in Example A, using 30 μM [γ-^33P]ATP (20 μCi/mL), 3.75 μM PIM2tide and 0.5 nM recombinant rat PIM-3 in place of PIM-1.

The target of assay [1] is T1, GST-tagged recombinant full-length human Pim-2 (Homo sapiens, UniProt Q9P1W9).
T1 construct: GST-tagged recombinant full-length human Pim-2; GST
T1 sequence (Q9P1W9 whole entry): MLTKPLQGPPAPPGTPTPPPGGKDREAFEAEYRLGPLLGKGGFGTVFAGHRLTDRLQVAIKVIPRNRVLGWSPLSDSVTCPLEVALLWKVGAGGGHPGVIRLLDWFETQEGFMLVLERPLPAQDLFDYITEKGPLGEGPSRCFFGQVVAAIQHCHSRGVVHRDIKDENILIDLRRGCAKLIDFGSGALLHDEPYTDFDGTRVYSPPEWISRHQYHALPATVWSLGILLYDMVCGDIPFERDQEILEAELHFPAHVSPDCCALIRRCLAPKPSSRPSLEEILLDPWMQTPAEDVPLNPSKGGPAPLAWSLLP
As to the kind of experiment: PIM-2 Assay (as Example A). To be noted: averaged IC50; 4 μM ATP, 1.0 μM PIM2tide, 1.5 nM Pim-2. The method, then: as §1, §2
Assay was performed as described in Example A, using 4 μM [γ-^33P]ATP (20 μCi/mL), 1.0 μM PIM2tide and 1.5 nM GST-tagged recombinant full-length human Pim-2 in place of PIM-1.

Counter-ions that a name gives are not always drawn. A value given as a limit tells only on which side of the number the result lay.

By IC50 is commonly meant the concentration at which inhibition is half-maximal. As for `COc1ccc2ccc(-c3nnc4ccc([C@@H](N5CC[C@H](N)C5)C(F)(F)F)cn34)nc2c1F` [Example 167, (S)-1-((R)-2,2,2-trifluoro-1-(3-(8-fluoro-7-methoxyquinolin-2-yl)-[1,2,4]triazolo[4,3-a]pyridin-6-yl)ethyl)pyrrolidin-3-amine dihydrochloride], the values for the IC50 (against PIM-1; at recombinant rat PIM-3; in assay [1]) were 2.04 nM, 12 nM and greater than 100 nM, respectively.

Regarding `CCC1(N)CCN([C@@H](c2ccc3nnc(-c4ccc5cccc(OC)c5n4)n3c2)C(F)(F)F)C1` (single isomer, unassigned; diastereomer 2) [Example 244, dihydrochloride], the results for the 50% inhibitory concentration (IC50) (against PIM-1; at recombinant rat PIM-3; in assay [1]) were 1.11 nM, 1 nM and 93 nM, respectively.

For `CCOc1cc2nc(-c3nnc4ccc([C@@H](C)N5CC[C@H](N)C5)cn34)ccc2cc1F` [Example 309, (S)-1-((R)-1-(3-(7-ethoxy-6-fluoroquinolin-2-yl)-[1,2,4]triazolo[4,3-a]pyridin-6-yl)ethyl)pyrrolidin-3-amine trihydrochloride], the half-inhibitory concentration (IC50) at PIM-1 came to 1.18 nM; at recombinant rat PIM-3 it was 3 nM; in assay [1], 407 nM.

As to `N[C@H]1CCN([C@H](c2ccc3nnc(-c4ccc5cccc(C6CC6)c5n4)n3c2)C(F)(F)F)C1` [Example 39, (S)-1-((R)-1-(3-(8-cyclopropylquinolin-2-yl)-[1,2,4]triazolo[4,3-a]pyridin-6-yl)-2,2,2-trifluoroethyl)pyrrolidin-3-amine dihydrochloride], the figures for the IC50 (against PIM-1; on recombinant rat PIM-3; in assay [1]) were 0.08 nM, 1 nM and 18 nM, respectively.

As to `CC(C)(O)Cc1cc2nc(-c3nnc4ccc([C@@H](N5CC[C@H](N)C5)C(F)(F)F)cn34)ccc2cc1F` [Example 236, dihydrochloride], the figures for the IC50 (at PIM-1; at recombinant rat PIM-3; in assay [1]) were 1.08 nM, 2.4 nM and 675 nM, respectively.

In the case of `CC(C)Oc1cccc2ccc(-c3nnc4ccc([C@@H](N5C[C@@H](N)[C@@H](O)C5)C(F)(F)F)cn34)nc12` [Example 129, (3S,4R)-4-amino-1-((R)-2,2,2-trifluoro-1-(3-(8-isopropoxyquinolin-2-yl)-[1,2,4]triazolo[4,3-a]pyridin-6-yl)ethyl)pyrrolidin-3-ol dihydrochloride], the 50% inhibitory concentration (IC50) was found to be 1.6 nM against PIM-1, 7.7 nM on recombinant rat PIM-3 and 621 nM in assay [1].

As for `CCOc1cc2nc(-c3nnc4ccc([C@@H](N5CC[C@H](N)C5)C(F)(F)F)cn34)ccc2cc1F` [Example 133, (S)-1-((R)-1-(3-(7-ethoxy-6-fluoroquinolin-2-yl)-[1,2,4]triazolo[4,3-a]pyridin-6-yl)-2,2,2-trifluoroethyl)pyrrolidin-3-amine hydrochloride], the IC50 against PIM-1 worked out at 0.16 nM; in assay [1] it was 77 nM.

Turning to `CC(C)(C)OC(=O)N[C@@H]1CCN([C@@H](c2ccc3nnc(-c4ccc5ccc(C(=O)O)cc5n4)n3c2)C(F)(F)F)C1` [Example 85, 2-(6-((S)-1-((R)-3-(tert-butoxycarbonylamino)pyrrolidin-1-yl)-2,2,2-trifluoroethyl)-[1,2,4]triazolo[4,3-a]pyridin-3-yl)quinoline-7-carboxylic acid], on recombinant rat PIM-3, the half-inhibitory concentration (IC50) turned out to be 18 nM.

Turning to `COc1cc(F)cc2ccc(-c3nnc4ccc([C@@H](N5CC[C@H](N)C5)C(F)(F)F)cn34)nc12` [Example 115, (S)-1-((R)-2,2,2-trifluoro-1-(3-(6-fluoro-8-methoxyquinolin-2-yl)-[1,2,4]triazolo[4,3-a]pyridin-6-yl)ethyl)pyrrolidin-3-amine hydrochloride], the IC50 against PIM-1 was 0.29 nM; in assay [1] it was greater than 100 nM.

Consider `COCCc1cc2nc(-c3nnc4ccc([C@H](N5CC[C@](C)(N)C5)C(F)(F)F)cn34)ccc2cc1F` [Example 311, (S)-3-methyl-1-((S)-2,2,2-trifluoro-1-(3-(6-fluoro-7-(2-methoxyethyl)quinolin-2-yl)-[1,2,4]triazolo[4,3-a]pyridin-6-yl)ethyl)pyrrolidin-3-amine], for which the half-maximal inhibitory concentration (IC50) in assay [1] was 50 nM.

The values are drawn from US8889704B2 (Array BioPharma Inc., priority 2011, dated 2014).
